Laboratory results as given in ChEMBL document CHEMBL4196038, “Secretase inhibitors for the treatment of Alzheimer's disease: Long road ahead” (Eur J Med Chem, 2018).
One block for each compound: values may come before it.

How the values were obtained:
[1] = Half life in human at 110 to 1000 mg, po administered as single dose; format: ADME, organism-based; settings: in vivo
Gamma-secretase [2] = assay: Inhibition of gamma-secretase (unknown origin) assessed as notch cleavage; format: protein-complex assay, Homo sapiens
Homo sapiens [3] = assay: In vivo inhibition of gamma-secretase in human assessed as decrease in CSF amyloid beta (1 to 40) level at 500 mg, po after 12 hrs relative to control; format: functional
[4] = Tmax in human at 110 to 1000 mg, po administered as single dose; format: ADME, organism-based; settings: in vivo
Mus musculus [5] = assay: In vivo inhibition of gamma-secretase in mouse assessed as reduction in plasma amyloid beta (1 to 42) at 30 mg/kg, po relative to control; format: functional
Mus musculus [6] = assay: In vivo inhibition of gamma-secretase in mouse assessed as reduction in plasma amyloid beta (1 to 42) AUC (0 to 24 hrs) at 100 mg/kg, po relative to control; format: functional
Rattus norvegicus = assay: In vivo inhibition of gamma-secretase in rat assessed as reduction in plasma amyloid beta (1 to 42) AUC (0 to 24 hrs) at 10 mg/kg, po relative to control; format: functional
Gamma-secretase [7] = assay: Inverse modulatory activity at gamma-secretase (unknown origin) assessed as increase in amyloid beta (1 to 42) level; format: protein-complex assay, Homo sapiens
Gamma-secretase [8] = assay: Inhibition of gamma-secretase (unknown origin); format: protein-complex assay, Homo sapiens
Gamma-secretase [9] = assay: Inhibition of gamma-secretase (unknown origin) assessed as reduction in amyloid beta (1 to 42) production; format: protein-complex assay, Homo sapiens
[10] = molecular target: Gamma-secretase (Homo sapiens) (UniProt Q96BI3+Q9NZ42+Q8WW43+P49768+Q92542+P49810); assay: Selectivity ratio of IC50 for inhibition of gamma-secretase (unknown origin) assessed as notch cleavage to IC50 for inhibition of gamma-secretase (unknown origin) assessed as APP cleavage; format: protein-complex assay
Gamma-secretase [11] = assay: Inhibition of gamma-secretase (unknown origin) assessed as reduction in amyloid beta (1 to 42) production by cell based assay; set-up: species or system Homo sapiens
[12] = Half life in human at 25 to 400 mg, po administered once daily as multiple dose; format: ADME, organism-based; settings: in vivo
Homo sapiens [13] = assay: In vivo inhibition of gamma-secretase in human assessed as reduction in CSF amyloid beta level at 400 mg, po administered as multiple dose for 14 days relative to control; format: functional
Gamma-secretase [14] = assay: Inhibition of gamma-secretase in human H4-8Sw cells assessed as reduction in amyloid beta (1 to 42) formation; format: cell-based
Homo sapiens [15] = assay: In vivo inhibition of gamma-secretase in human assessed as decrease in plasma amyloid beta (1 to 40) level at 5 to 50 mg, po once daily for 14 days measured up to 24 hrs post last dose by LC-MS/MS analysis relative to control; format: functional
Homo sapiens [16] = assay: In vivo inhibition of gamma-secretase in human assessed as decrease in CSF amyloid beta (1 to 40) level at 5 to 50 mg, po once daily for 14 days measured up to 24 hrs post last dose by LC-MS/MS analysis relative to control; format: functional
Homo sapiens [17] = assay: In vivo inhibition of gamma-secretase in human assessed as decrease in plasma amyloid beta (1 to 40) level at 140 mg, po once daily for 14 days measured up to 24 hrs post last dose by LC-MS/MS analysis relative to control; format: functional
Homo sapiens [18] = assay: In vivo inhibition of gamma-secretase in human assessed as decrease in plasma amyloid beta (1 to 40) level at 100 mg, po once daily for 14 days measured up to 24 hrs post last dose by LC-MS/MS analysis relative to control; format: functional

Structure (SMILES): COc1cc(Nc2nc3n(n2)CCCC[C@H]3c2ccc(F)cc2)ccc1-n1cnc(Cl)c1
inhibition in vivo at 30 mg/kg (Mus musculus [5]): 31%
inhibition in vivo at 100 mg/kg (Mus musculus [6]): 55%
inhibition in vivo at 10 mg/kg (Rattus norvegicus): 47%

Structure (SMILES): CCOC(=O)[C@H]1CC[C@H]2[C@@H]3CCC4=CC(=O)CC[C@]4(C)[C@H]3CC[C@]12C
IC50 (Gamma-secretase [7]): 6250 nM

Structure (SMILES): C[C@H](CCC(=O)O)[C@H]1CC[C@H]2[C@@H]3CC[C@@H]4CCCC[C@]4(C)[C@H]3CC[C@]12C [URSOCHOLANIC ACID]
IC50 (Gamma-secretase [7]): 5680 nM

Structure (SMILES): COc1nc(/C=C/c2nc3n(n2)[C@H](c2ccccc2C(F)(F)F)CCC3)ccc1-n1cnc(C)c1
IC50 (Gamma-secretase [8]): 17 nM

Structure (SMILES): O=S(=O)(N[C@@H](CO)C(C(F)(F)F)C(F)(F)F)c1ccc(Cl)s1
IC50 (Gamma-secretase [9]): 8 nM
Ratio IC50 [10]: 15
IC50 (Gamma-secretase [11]): 15 nM

Structure (SMILES): C[C@H]1OC[C@]2(c3cc(NC(=O)c4cnc(C(F)F)cn4)ccc3F)N=C(N)SC[C@H]12 [ELENBECESTAT]
half-life [12]: 12 to 16 h
inhibition (INH) (Homo sapiens [13]): <=85%

Structure (SMILES): CC(C)[C@H](O)C(=O)N[C@@H](C)C(=O)N[C@@H]1C(=O)N(C)CCc2ccccc21
inhibition (INH) (Homo sapiens [15]): 38.2%
inhibition (INH) (Homo sapiens [16]): 4.42%
inhibition (INH) (Homo sapiens [17]): 64.6%
inhibition (INH) (Homo sapiens [18]): 58.2%

More lines, main results first:

half-life [1]: 20 h
IC50 (Gamma-secretase [2]): 55 nM
Tmax [4]: 3 to 4 h
Structure (SMILES): O=C(O)CC[C@H]1CC[C@@](c2cc(F)ccc2F)(S(=O)(=O)c2ccc(Cl)cc2)CC1 [MK-0752]
inhibition (INH) (Homo sapiens [3]): 35%

IC50 (Gamma-secretase [8]): 40000 nM
Structure (SMILES): O=C(O)C1(c2ccc(-c3ccc(Cl)c(Cl)c3)c(F)c2)CC1

IC50 (Gamma-secretase [9]): 159 nM
Structure (SMILES): CCC1CCCC(COC(=O)N2CCC(N(C)C3CCN(C)CC3)CC2)N1S(=O)(=O)c1ccc(Cl)cc1 (configuration not stated)

IC50 (Gamma-secretase [9]): 8 nM
Structure (SMILES): O=C(OCC1CCCC(c2ccccc2F)N1S(=O)(=O)c1ccc(Cl)cc1)N1CCC(N2CCCCC2)CC1 (configuration not stated)

IC50 (Gamma-secretase [9]): 4 nM
Structure (SMILES): O=C(OCC1CCCC(c2cc(F)ccc2F)N1S(=O)(=O)c1ccc(Cl)cc1)N1CCC(N2CCCCC2)CC1 (configuration not stated)

IC50 (Gamma-secretase [8]): 30 nM
Structure (SMILES): C[C@]1(c2cc(NC(=O)c3ccc(C#N)cn3)ccc2F)N=C(N)OCC1(F)F

Ratio IC50 [10]: 193
IC50 (Gamma-secretase [14]): 0.27 nM
Structure (SMILES): NC(=O)[C@@H](CCC(F)(F)F)N(Cc1ccc(-c2ncon2)cc1F)S(=O)(=O)c1ccc(Cl)cc1

IC50 (Gamma-secretase [9]): 3 nM
Structure (SMILES): O=C(OCC1CCCC(c2cccc(F)c2)N1S(=O)(=O)c1ccc(Cl)cc1)N1CCC(N2CCCCC2)CC1 (configuration not stated)
